Results as given in paper PMC6911266 (Nature, 2019).

Key:
Type in all cases: cell-based, Plasmodium falciparum
[1] = test system: P. falciparum 7G8^7G8 parasite line; assay: Piperaquine survival assay; conditions: vs no-drug control
[2] = test system: P. falciparum WT (3D7) parasite line; assay: Piperaquine survival assay; conditions: vs no-drug control
[3] = test system: P. falciparum 7G8^7G8+C350R parasite line; assay: Piperaquine survival assay; conditions: vs no-drug control
[4] = test system: P. falciparum ring-stage parasites; assay: Piperaquine survival assay, summary in text
[5] = test system: P. falciparum Dd2^Dd2 parasite line; assay: Piperaquine survival assay; conditions: vs no-drug control

Clc1ccc2c(N3CCN(CCCN4CCN(c5ccnc6cc(Cl)ccc56)CC4)CC3)ccnc2c1 [PPQ, piperaquine]
PSA 3.125 nM, percent survival ([1]; 3.125 nM PPQ 48 h): 93.8 ± 3.5% | PSA 6.25 nM, percent survival ([1]; 6.25 nM PPQ 48 h): 87.1 ± 3.5% | PSA 12.5 nM, percent survival ([1]; 12.5 nM PPQ 48 h): 76.7 ± 5.1% | PSA 25 nM, percent survival ([1]; 25 nM PPQ 48 h): 48.3 ± 5.5% | PSA 50 nM, percent survival ([1]; 50 nM PPQ 48 h): 4.9 ± 1.3% | PSA 100 nM, percent survival ([1]; 100 nM PPQ 48 h): 1.6 ± 0.3% | PSA 200 nM, percent survival ([1]; 200 nM PPQ 48 h): 1.4 ± 0.2% | PSA 400 nM, percent survival ([1]; 400 nM PPQ 48 h): 0.66 ± 0.20% | PSA 800 nM, percent survival ([1]; 800 nM PPQ 48 h): 0.56 ± 0.17% | PSA 1600 nM, percent survival ([1]; 1600 nM PPQ 48 h): 0.54 ± 0.20% | PSA 3.125 nM, percent survival ([2]; 3.125 nM PPQ 48 h): 81.2 ± 19.6% | PSA 6.25 nM, percent survival ([2]; 6.25 nM PPQ 48 h): 12.1 ± 6.8% | PSA 12.5 nM, percent survival ([2]; 12.5 nM PPQ 48 h): 7.2 ± 1.5% | PSA 25 nM, percent survival ([2]; 25 nM PPQ 48 h): 11.0 ± 1.7% | PSA 50 nM, percent survival ([2]; 50 nM PPQ 48 h): 4.9 ± 1.1% | PSA 100 nM, percent survival ([2]; 100 nM PPQ 48 h): 1.3 ± 0.35% | PSA 200 nM, percent survival ([2]; 200 nM PPQ 48 h): 1.2 ± 0.54% | PSA 400 nM, percent survival ([2]; 400 nM PPQ 48 h): 0.61 ± 0.19% | PSA 800 nM, percent survival ([2]; 800 nM PPQ 48 h): 0.62 ± 0.16% | PSA 1600 nM, percent survival ([2]; 1600 nM PPQ 48 h): 0.51 ± 0.17% | PSA 3.125 nM, percent survival ([3]; 3.125 nM PPQ 48 h): 96.6 ± 2.4% | PSA 6.25 nM, percent survival ([3]; 6.25 nM PPQ 48 h): 90.7 ± 5.1% | PSA 12.5 nM, percent survival ([3]; 12.5 nM PPQ 48 h): 79.8 ± 5.5% | PSA 25 nM, percent survival ([3]; 25 nM PPQ 48 h): 62.1 ± 9.6% | PSA 50 nM, percent survival ([3]; 50 nM PPQ 48 h): 31.8 ± 9.3% | PSA 100 nM, percent survival ([3]; 100 nM PPQ 48 h): 7.7 ± 2.5% | PSA 200 nM, percent survival ([3]; 200 nM PPQ 48 h): 9.5 ± 1.2% | PSA 400 nM, percent survival ([3]; 400 nM PPQ 48 h): 10.5 ± 1.1% | PSA 800 nM, percent survival ([3]; 800 nM PPQ 48 h): 6.6 ± 0.46% | PSA 1600 nM, percent survival ([3]; 1600 nM PPQ 48 h): 5.9 ± 0.9% | survival in PPQ survival assay ([4]; PPQ-S parasites, concentrations of 200 nM or more): ≤ 1% | survival in PPQ survival assay ([4]; standard assay concentration of 200 nM PPQ, 48 h, edited 7G8+F145I and 7G8+C350R lines (Fig. 3l)): 9–10% | PSA 3.125 nM, percent survival ([5]; 3.125 nM PPQ 48 h): 95.9 ± 2.1% | PSA 6.25 nM, percent survival ([5]; 6.25 nM PPQ 48 h): 83.6 ± 6.1% | PSA 12.5 nM, percent survival ([5]; 12.5 nM PPQ 48 h): 67.7 ± 11.9% | PSA 25 nM, percent survival ([5]; 25 nM PPQ 48 h): 35.3 ± 12.2% | PSA 50 nM, percent survival ([5]; 50 nM PPQ 48 h): 7.6 ± 3.3% | PSA 100 nM, percent survival ([5]; 100 nM PPQ 48 h): 1.7 ± 0.2% | PSA 200 nM, percent survival ([5]; 200 nM PPQ 48 h): 1.1 ± 0.10% | PSA 400 nM, percent survival ([5]; 400 nM PPQ 48 h): 1.1 ± 0.24% | PSA 800 nM, percent survival ([5]; 800 nM PPQ 48 h): 0.89 ± 0.16% | PSA 1600 nM, percent survival ([5]; 1600 nM PPQ 48 h): 0.87 ± 0.10%
